Target: T1, Alpha-1D adrenergic receptor (Homo sapiens, UniProt P25100); also: in other assays of this panel Not Active means under 50% inhibition at 10 µM
T1 sequence (P25100 whole entry): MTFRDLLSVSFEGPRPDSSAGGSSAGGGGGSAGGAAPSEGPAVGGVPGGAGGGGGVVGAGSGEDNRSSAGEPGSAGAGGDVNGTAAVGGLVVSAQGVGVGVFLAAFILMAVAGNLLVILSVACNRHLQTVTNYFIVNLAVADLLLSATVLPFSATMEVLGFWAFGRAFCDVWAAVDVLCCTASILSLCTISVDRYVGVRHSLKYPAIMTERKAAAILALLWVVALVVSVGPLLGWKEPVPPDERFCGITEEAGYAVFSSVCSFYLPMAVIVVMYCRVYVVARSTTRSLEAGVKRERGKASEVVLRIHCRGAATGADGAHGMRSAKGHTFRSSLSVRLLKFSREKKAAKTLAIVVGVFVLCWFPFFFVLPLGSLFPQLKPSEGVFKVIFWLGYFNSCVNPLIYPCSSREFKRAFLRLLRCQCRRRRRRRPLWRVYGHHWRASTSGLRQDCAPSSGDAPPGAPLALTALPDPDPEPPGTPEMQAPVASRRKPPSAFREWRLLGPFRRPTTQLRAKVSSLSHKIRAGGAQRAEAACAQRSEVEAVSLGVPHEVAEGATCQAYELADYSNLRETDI
Type: cell membranes, HEK293, Membrane
Conditions: hek293

| SMILES | IC50 |
| --- | --- |
| CCCCC(=O)N(Cc1ccc(-c2ccccc2-c2nnn[nH]2)cc1)[C@H](C(=O)O)C(C)C | Not Active |
| O=C(O)COc1ccc(C(=O)c2cccs2)c(Cl)c1Cl | Not Active |
| C[C@@](Cc1ccc(O)c(O)c1)(NN)C(=O)O.O [CARBIDOPA] | Not Active |
| CC(C)NC[C@@H](O)COc1cccc2ccccc12 [DEXPROPRANOLOL] | Not Active |
| CC(C)NC[C@H](O)COc1cccc2ccccc12 [LEVOPROPRANOLOL] | Not Active |
| O=C(O)CCCCC1CCSS1 (stereo not drawn) [LIPOIC ACID, ALPHA] | Not Active |
| CN(C)C(=O)C(CCN1CCC(O)(c2ccc(Cl)cc2)CC1)(c1ccccc1)c1ccccc1 [LOPERAMIDE] | Not Active |
| Oc1ccc2c3c1O[C@H]1[C@@H](O)CC[C@@]4(O)[C@@H](C2)N(CC2CCC2)CC[C@]314 [NALBUPHINE] | Not Active |
| C[C@]12C=CC(=O)C=C1CC[C@@H]1[C@@H]2C(=O)C[C@@]2(C)[C@H]1CC[C@]2(O)C(=O)CO [PREDNISONE] | Not Active |
| COC(=O)[C@H]1[C@H]2C[C@@H]3c4[nH]c5cc(OC)ccc5c4CCN3C[C@H]2C[C@@H](OC(=O)c2cc(OC)c(OC)c(OC)c2)[C@@H]1OC [RESERPINE] | Not Active |
| O=C(O)c1ccccc1O [SALICYLIC ACID] | Not Active |
| C[S+]([O-])c1ccc(-c2nc(-c3ccncc3)c(-c3ccc(F)cc3)[nH]2)cc1 (stereo not drawn) [SB-203580] | Not Active |

Target: 5-hydroxytryptamine receptor 6 (Homo sapiens, UniProt P50406); also: in other assays of this panel Not Active means under 50% inhibition at 10 µM
Sequence (P50406 whole entry): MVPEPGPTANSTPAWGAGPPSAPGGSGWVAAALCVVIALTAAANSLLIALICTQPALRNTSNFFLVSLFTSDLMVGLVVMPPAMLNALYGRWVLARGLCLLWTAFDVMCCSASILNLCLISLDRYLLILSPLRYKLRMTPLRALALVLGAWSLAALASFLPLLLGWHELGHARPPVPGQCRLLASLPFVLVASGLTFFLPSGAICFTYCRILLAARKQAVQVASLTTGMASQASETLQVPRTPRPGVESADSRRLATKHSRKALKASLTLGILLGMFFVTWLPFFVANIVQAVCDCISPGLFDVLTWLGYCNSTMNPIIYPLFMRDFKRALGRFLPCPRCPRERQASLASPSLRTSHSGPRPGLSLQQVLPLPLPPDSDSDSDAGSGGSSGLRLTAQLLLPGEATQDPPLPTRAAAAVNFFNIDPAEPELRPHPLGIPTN
Type: cell membranes, HeLa, Membrane
Conditions: hela

| SMILES | IC50 |
| --- | --- |
| CCCCC(=O)N(Cc1ccc(-c2ccccc2-c2nnn[nH]2)cc1)[C@H](C(=O)O)C(C)C | Not Active |
| O=C(O)COc1ccc(C(=O)c2cccs2)c(Cl)c1Cl | Not Active |
| C[C@@](Cc1ccc(O)c(O)c1)(NN)C(=O)O.O [CARBIDOPA] | Not Active |
| CC(C)NC[C@@H](O)COc1cccc2ccccc12 [DEXPROPRANOLOL] | Not Active |
| O=C(O)CCCCC1CCSS1 (stereo not drawn) [LIPOIC ACID, ALPHA] | Not Active |
| CN(C)C(=O)C(CCN1CCC(O)(c2ccc(Cl)cc2)CC1)(c1ccccc1)c1ccccc1 [LOPERAMIDE] | Not Active |
| Oc1ccc2c3c1O[C@H]1[C@@H](O)CC[C@@]4(O)[C@@H](C2)N(CC2CCC2)CC[C@]314 [NALBUPHINE] | Not Active |
| C[C@]12C=CC(=O)C=C1CC[C@@H]1[C@@H]2C(=O)C[C@@]2(C)[C@H]1CC[C@]2(O)C(=O)CO [PREDNISONE] | Not Active |
| COC(=O)[C@H]1[C@H]2C[C@@H]3c4[nH]c5cc(OC)ccc5c4CCN3C[C@H]2C[C@@H](OC(=O)c2cc(OC)c(OC)c(OC)c2)[C@@H]1OC [RESERPINE] | Not Active |
| O=C(O)c1ccccc1O [SALICYLIC ACID] | Not Active |
| C[S+]([O-])c1ccc(-c2nc(-c3ccncc3)c(-c3ccc(F)cc3)[nH]2)cc1 (stereo not drawn) [SB-203580] | Not Active |

Same assay, conditions: read-out: IC50

| SMILES | IC50 [nM] |
| --- | --- |
| CC(C)NC[C@H](O)COc1cccc2ccccc12 [LEVOPROPRANOLOL] | 998 |

Same assay, conditions: read-out: Ki

| SMILES | Ki [nM] |
| --- | --- |
| CC(C)NC[C@H](O)COc1cccc2ccccc12 [LEVOPROPRANOLOL] | 463 |

System: not listed separately
Assay: DRUGMATRIX: Calcium Channel Type L, Phenylalkylamine radioligand binding (ligand: [3H] (-)-Desmethoxyverapamil (D-888))
Type: cell membranes, Rattus norvegicus, Wistar, Brain, Membrane
Conditions: Not Active = under 50% inhibition at 10 µM

| SMILES | IC50 | Ki |
| --- | --- | --- |
| CCCCC(=O)N(Cc1ccc(-c2ccccc2-c2nnn[nH]2)cc1)[C@H](C(=O)O)C(C)C | Not Active | Not Active |
| O=C(O)COc1ccc(C(=O)c2cccs2)c(Cl)c1Cl | Not Active | Not Active |
| C[C@@](Cc1ccc(O)c(O)c1)(NN)C(=O)O.O [CARBIDOPA] | Not Active | Not Active |
| O=C(O)CCCCC1CCSS1 (stereo not drawn) [LIPOIC ACID, ALPHA] | Not Active | Not Active |
| C[C@]12C=CC(=O)C=C1CC[C@@H]1[C@@H]2C(=O)C[C@@]2(C)[C@H]1CC[C@]2(O)C(=O)CO [PREDNISONE] | Not Active | Not Active |
| O=C(O)c1ccccc1O [SALICYLIC ACID] | Not Active | Not Active |

Same assay, conditions: Not Active = under 50% inhibition at 10 µM; read-out: IC50

| SMILES | IC50 [nM] |
| --- | --- |
| COC(=O)[C@H]1[C@H]2C[C@@H]3c4[nH]c5cc(OC)ccc5c4CCN3C[C@H]2C[C@@H](OC(=O)c2cc(OC)c(OC)c(OC)c2)[C@@H]1OC [RESERPINE] | 2050 |

Same assay, conditions: Not Active = under 50% inhibition at 10 µM; read-out: Ki

| SMILES | Ki [nM] |
| --- | --- |
| COC(=O)[C@H]1[C@H]2C[C@@H]3c4[nH]c5cc(OC)ccc5c4CCN3C[C@H]2C[C@@H](OC(=O)c2cc(OC)c(OC)c(OC)c2)[C@@H]1OC [RESERPINE] | 1990 |

Target: T2, Leukotriene C4 synthase (Cavia porcellus, UniProt A6XA80);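 also: enzyme inhibition assay of leukotriene C4 synthase, using LTA4 as the substrate; in other assays of this panel Not Active means under 50% inhibition at 10 µM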
T2 sequence (A6XA80 whole entry): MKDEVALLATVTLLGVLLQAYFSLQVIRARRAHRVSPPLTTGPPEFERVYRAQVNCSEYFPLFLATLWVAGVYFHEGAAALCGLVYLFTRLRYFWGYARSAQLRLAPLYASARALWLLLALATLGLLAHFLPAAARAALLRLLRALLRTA
Type: tissue-based, Lung
Conditions: not given

| SMILES | IC50 |
| --- | --- |
| CCCCC(=O)N(Cc1ccc(-c2ccccc2-c2nnn[nH]2)cc1)[C@H](C(=O)O)C(C)C | Not Active |
| O=C(O)COc1ccc(C(=O)c2cccs2)c(Cl)c1Cl | Not Active |
| C[C@@](Cc1ccc(O)c(O)c1)(NN)C(=O)O.O [CARBIDOPA] | Not Active |
| CC(C)NC[C@@H](O)COc1cccc2ccccc12 [DEXPROPRANOLOL] | Not Active |
| CC(C)NC[C@H](O)COc1cccc2ccccc12 [LEVOPROPRANOLOL] | Not Active |
| O=C(O)CCCCC1CCSS1 (stereo not drawn) [LIPOIC ACID, ALPHA] | Not Active |
| CN(C)C(=O)C(CCN1CCC(O)(c2ccc(Cl)cc2)CC1)(c1ccccc1)c1ccccc1 [LOPERAMIDE] | Not Active |
| Oc1ccc2c3c1O[C@H]1[C@@H](O)CC[C@@]4(O)[C@@H](C2)N(CC2CCC2)CC[C@]314 [NALBUPHINE] | Not Active |
| C[C@]12C=CC(=O)C=C1CC[C@@H]1[C@@H]2C(=O)C[C@@]2(C)[C@H]1CC[C@]2(O)C(=O)CO [PREDNISONE] | Not Active |
| COC(=O)[C@H]1[C@H]2C[C@@H]3c4[nH]c5cc(OC)ccc5c4CCN3C[C@H]2C[C@@H](OC(=O)c2cc(OC)c(OC)c(OC)c2)[C@@H]1OC [RESERPINE] | Not Active |
| O=C(O)c1ccccc1O [SALICYLIC ACID] | Not Active |
| C[S+]([O-])c1ccc(-c2nc(-c3ccncc3)c(-c3ccc(F)cc3)[nH]2)cc1 (stereo not drawn) [SB-203580] | Not Active |

System: not listed separately
Assay: DRUGMATRIX: Nicotinic Acetylcholine radioligand binding (ligand: [125I] Epibatidine)
Type: cell membranes, Membrane
Conditions: imr-32; Not Active = under 50% inhibition at 10 µM

| SMILES | IC50 | Ki |
| --- | --- | --- |
| CCCCC(=O)N(Cc1ccc(-c2ccccc2-c2nnn[nH]2)cc1)[C@H](C(=O)O)C(C)C | Not Active | Not Active |
| O=C(O)COc1ccc(C(=O)c2cccs2)c(Cl)c1Cl | Not Active | Not Active |
| C[C@@](Cc1ccc(O)c(O)c1)(NN)C(=O)O.O [CARBIDOPA] | Not Active | Not Active |
| O=C(O)CCCCC1CCSS1 (stereo not drawn) [LIPOIC ACID, ALPHA] | Not Active | Not Active |
| C[C@]12C=CC(=O)C=C1CC[C@@H]1[C@@H]2C(=O)C[C@@]2(C)[C@H]1CC[C@]2(O)C(=O)CO [PREDNISONE] | Not Active | Not Active |
| COC(=O)[C@H]1[C@H]2C[C@@H]3c4[nH]c5cc(OC)ccc5c4CCN3C[C@H]2C[C@@H](OC(=O)c2cc(OC)c(OC)c(OC)c2)[C@@H]1OC [RESERPINE] | Not Active | Not Active |
| O=C(O)c1ccccc1O [SALICYLIC ACID] | Not Active | Not Active |

Target: Cytochrome P450 2D6 (Homo sapiens, UniProt P10635); also: in other assays of this panel Not Active means under 50% inhibition at 10 µM
Sequence (P10635 whole entry): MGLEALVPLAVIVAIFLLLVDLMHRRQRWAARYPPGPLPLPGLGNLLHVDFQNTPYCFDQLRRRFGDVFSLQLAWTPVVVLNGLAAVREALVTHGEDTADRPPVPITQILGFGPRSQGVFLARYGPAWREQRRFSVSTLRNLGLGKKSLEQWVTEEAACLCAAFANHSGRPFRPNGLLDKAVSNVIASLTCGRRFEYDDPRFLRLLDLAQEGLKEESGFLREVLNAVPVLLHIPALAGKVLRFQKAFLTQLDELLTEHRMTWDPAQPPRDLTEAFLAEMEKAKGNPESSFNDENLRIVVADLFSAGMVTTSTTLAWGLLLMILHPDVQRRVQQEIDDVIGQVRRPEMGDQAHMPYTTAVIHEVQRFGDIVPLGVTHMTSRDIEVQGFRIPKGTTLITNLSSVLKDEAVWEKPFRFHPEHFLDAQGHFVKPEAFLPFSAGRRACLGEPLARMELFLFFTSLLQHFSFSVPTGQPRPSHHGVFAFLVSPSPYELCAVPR
Conditions: bti-tn-5b1-4

| SMILES | IC50 | Ki |
| --- | --- | --- |
| CCCCC(=O)N(Cc1ccc(-c2ccccc2-c2nnn[nH]2)cc1)[C@H](C(=O)O)C(C)C | Not Active | Not Active |
| O=C(O)COc1ccc(C(=O)c2cccs2)c(Cl)c1Cl | Not Active | Not Active |
| C[C@@](Cc1ccc(O)c(O)c1)(NN)C(=O)O.O [CARBIDOPA] | Not Active | Not Active |
| CC(C)NC[C@@H](O)COc1cccc2ccccc12 [DEXPROPRANOLOL] | Not Active | Not Active |
| CC(C)NC[C@H](O)COc1cccc2ccccc12 [LEVOPROPRANOLOL] | Not Active | Not Active |
| O=C(O)CCCCC1CCSS1 (stereo not drawn) [LIPOIC ACID, ALPHA] | Not Active | Not Active |
| COC(=O)[C@H]1[C@H]2C[C@@H]3c4[nH]c5cc(OC)ccc5c4CCN3C[C@H]2C[C@@H](OC(=O)c2cc(OC)c(OC)c(OC)c2)[C@@H]1OC [RESERPINE] | Not Active | Not Active |
| O=C(O)c1ccccc1O [SALICYLIC ACID] | Not Active | Not Active |

Target: Voltage-gated inwardly rectifying potassium channel KCNH2 (Homo sapiens, UniProt Q12809); also: in other assays of this panel Not Active means under 50% inhibition at 10 µM
Sequence (Q12809 whole entry): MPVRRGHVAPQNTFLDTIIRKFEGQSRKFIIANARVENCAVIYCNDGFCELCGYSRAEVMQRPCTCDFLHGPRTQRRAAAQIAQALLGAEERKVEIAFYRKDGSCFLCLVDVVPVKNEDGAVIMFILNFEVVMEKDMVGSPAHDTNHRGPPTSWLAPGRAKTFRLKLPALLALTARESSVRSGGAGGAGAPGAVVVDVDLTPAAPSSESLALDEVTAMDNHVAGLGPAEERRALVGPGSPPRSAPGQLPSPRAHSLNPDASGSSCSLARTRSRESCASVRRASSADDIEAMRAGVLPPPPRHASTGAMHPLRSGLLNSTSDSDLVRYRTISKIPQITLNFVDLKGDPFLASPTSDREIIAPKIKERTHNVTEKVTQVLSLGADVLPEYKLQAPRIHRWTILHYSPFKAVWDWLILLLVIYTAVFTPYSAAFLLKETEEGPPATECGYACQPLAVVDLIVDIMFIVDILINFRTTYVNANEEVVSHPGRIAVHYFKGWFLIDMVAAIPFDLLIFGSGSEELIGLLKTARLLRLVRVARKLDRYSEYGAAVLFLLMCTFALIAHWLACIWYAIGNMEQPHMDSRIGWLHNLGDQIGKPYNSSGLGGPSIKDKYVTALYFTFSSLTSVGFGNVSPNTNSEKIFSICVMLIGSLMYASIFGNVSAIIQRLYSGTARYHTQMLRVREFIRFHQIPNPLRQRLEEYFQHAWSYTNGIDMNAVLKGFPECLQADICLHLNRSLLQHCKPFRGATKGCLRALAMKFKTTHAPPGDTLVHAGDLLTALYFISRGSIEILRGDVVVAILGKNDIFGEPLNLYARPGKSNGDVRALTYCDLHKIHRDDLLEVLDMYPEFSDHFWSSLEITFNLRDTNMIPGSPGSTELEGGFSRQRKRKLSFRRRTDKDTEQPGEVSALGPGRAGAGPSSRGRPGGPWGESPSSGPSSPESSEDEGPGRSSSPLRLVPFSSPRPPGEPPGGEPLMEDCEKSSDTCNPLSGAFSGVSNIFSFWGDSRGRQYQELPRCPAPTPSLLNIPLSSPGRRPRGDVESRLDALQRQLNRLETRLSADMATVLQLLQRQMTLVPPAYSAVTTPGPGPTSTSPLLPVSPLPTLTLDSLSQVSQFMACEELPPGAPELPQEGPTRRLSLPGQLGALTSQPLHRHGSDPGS
Conditions: hek293

| SMILES | IC50 | Ki |
| --- | --- | --- |
| CCCCC(=O)N(Cc1ccc(-c2ccccc2-c2nnn[nH]2)cc1)[C@H](C(=O)O)C(C)C | Not Active | Not Active |
| O=C(O)COc1ccc(C(=O)c2cccs2)c(Cl)c1Cl | Not Active | Not Active |
| C[C@@](Cc1ccc(O)c(O)c1)(NN)C(=O)O.O [CARBIDOPA] | Not Active | Not Active |
| CC(C)NC[C@@H](O)COc1cccc2ccccc12 [DEXPROPRANOLOL] | Not Active | Not Active |
| CC(C)NC[C@H](O)COc1cccc2ccccc12 [LEVOPROPRANOLOL] | Not Active | Not Active |
| O=C(O)CCCCC1CCSS1 (stereo not drawn) [LIPOIC ACID, ALPHA] | Not Active | Not Active |
| CN(C)C(=O)C(CCN1CCC(O)(c2ccc(Cl)cc2)CC1)(c1ccccc1)c1ccccc1 [LOPERAMIDE] | Not Active | Not Active |
| Oc1ccc2c3c1O[C@H]1[C@@H](O)CC[C@@]4(O)[C@@H](C2)N(CC2CCC2)CC[C@]314 [NALBUPHINE] | Not Active | Not Active |
| C[C@]12C=CC(=O)C=C1CC[C@@H]1[C@@H]2C(=O)C[C@@]2(C)[C@H]1CC[C@]2(O)C(=O)CO [PREDNISONE] | Not Active | Not Active |
| COC(=O)[C@H]1[C@H]2C[C@@H]3c4[nH]c5cc(OC)ccc5c4CCN3C[C@H]2C[C@@H](OC(=O)c2cc(OC)c(OC)c(OC)c2)[C@@H]1OC [RESERPINE] | Not Active | Not Active |
| O=C(O)c1ccccc1O [SALICYLIC ACID] | Not Active | Not Active |
